Source: patent US8946271B2, “Water soluble furoxan derivatives having antitumor activity” (Humanitas Mirasole S.p.A., priority 2010, dated 2015)
Where a name gives a salt, the structure may show the parent alone.

Assays:
[1] = Stability in aqueous medium at pH=1 (0.1 M HCl, 37° C., RP-HPLC); type: physicochemical; conditions: compound unaltered after 1 hour of incubation, 100 μM
Protocol: (§1) The stability of the compound MC526 was studied through reverse phase chromatography in an aqueous medium at pH=1 and in the human serum at 37° C.
In particular, a 10 mM solution of the compound of Example 1 in DMSO was added to a 0.1 M solution of HCl preheated to 37° C. The final concentration of the compound was 100 μM. The resulting solution was maintained at 37±0.5° C. and 20 μl aliquots of the reaction solution were analysed by means of RP-HPLC at suitable time intervals.
(§2) The analysis in RP-HPLC allows separating and quantifying the initial compounds and those deriving from hydrolysis. Analysis was carried out using a HP1100 (Agilent Technologies, Palo Alto, Calif., USA) chromatography system equipped with a quaternary pump (model G1311A), a degassing membrane (G1379A), a diode-array detector (DAD) (model G1315B) integrated in the HP1100 system. A HP ChemStation (Agilent Technologies) system was used for analyzing data. The analytic column was Nucleosil 100-5 C18 Nautilus (250×4, 6 mm, size of the particles 5 μm) (Macherey-Nagel). The mobile phase used was constituted by acetonitrile/water (55/45) with 0.1% trifluoroacetic acid and the flow rate is of 1.2 ml/min. The injection volume was 20 μl (Rheodyne, Cotati, Calif.). The effluent from column was monitored at 226 nm (for the compound MC526 and for CAS 1609) and at 240 nm (for salicylic acid and the salicylate AT38) against a reference at 600 nm. The quantification of the initial products and those deriving from hydrolysis was carried out by means of calibration curves obtained using standards studied in the same conditions (for concentrations comprised between 5 and 200 μM).

[2] = Stability in human serum at 37° C. (RP-HPLC); type: in vitro ADME; conditions: for half-life at 200 μM: read-out: Stability in human serum t1/2
Protocol: as §1
In order to assay the stability of the compound of Example 1 in human serum, a 10 mM solution of the compound in DMSO was added to human serum (obtained from human AB plasma, Sigma) preheated to 37° C. The final concentration of the compound was 200 μM. The resulting solution was incubated at 37±0.5° C. and 300 μL aliquots of the reaction mixture were collected and added to an equal amount of acetonitrile containing trifluoroacetic acid 0.1% at suitable time intervals for deproteinising the serum. The sample was sonicated, vortexed and then centrifuged for 10 minutes at 2150 g. The white supernatant was filtered using PTFE 0.45μm (Alltech) filters and analysed through RP-HPLC.
as §2

Solubility in water = type: physicochemical
[3] = test system: splenocytes of the BALB/C from the control animal group and from the animals carrying colon carcinoma26 (C26GM); experiment: Proliferation assay (3H-TdR) of anti-CD3/anti-CD28 stimulated splenocytes; type: cell-based, mice; conditions: FIG. 7
Protocol: The mice BALB/c were inoculated s.c. in the inguinal cavity with 0.5*10^6 cells C26GM. The mice were sacrificed after 9 days and the splenocytes were used for in vitro assays.
The splenocytes of the BALB/C from the control animal group and from the animals carrying colon carcinoma26 (C26GM) are plated to the concentration of 6*10^5 cells per well and stimulated with 3 μg/ml anti-CD3 (2C11, ATCC) and 2 μg/ml of anti-CD28 (clone 37.5, ATCC) both with and without scalar dilutions of the compounds subject of the invention. After 3 days of incubation, 1 μCi/well (1 Cl=37 GBq) of ^3H-TdR (PerkinElmer) is added to the culture for 18 hours and the addition thereof is monitored by scintillation.
In particular, the controls (Unst) refer to cells not stimulated with antiCD3 and antiCD28 and the control (St) on stimulated cells but drug-free. It can be observed that the doses corresponding to 200 μM and 100 μM are toxic for the cells, in that the proliferation is not observed even on healthy splenocytes.

Row | Stability in buffer at pH = 1 after 1 hour [1] [%] | half-life at 200 μM [2] [min] | solubility (Solubility in water) [µg/mL] | Compound | Proliferation assay result ([3]; 12.5 μM) | Proliferation assay result ([3]; 25 μM) | Proliferation assay result on healthy cells ([3]; 50 μM, healthy cells) | Proliferation assay result ([3]; 100 μM, healthy splenocytes) | Proliferation assay result ([3]; 200 μM, healthy splenocytes) | Hydrolysis of the salicylate derivative in human serum ([2]; release of CAS 1609 and salicylic acid)
1 | 60 | 1.4 | 10000 | NCCC(=O)Oc1ccccc1C(=O)OCc1no[n+]([O-])c1C(N)=O [MC526, ([3-(aminocarbonyl)furoxan-4-yl]methyl-2-(β-alanyloxy)benzoate)hydrochloride] | efficient and non-toxic | efficient and non-toxic | partly toxic | toxic | toxic | 
2 |  |  | < 1 | NC(=O)c1c(COC(=O)c2ccccc2O)no[n+]1[O-] [AT38, [3-(aminocarbonyl)furoxan-4-yl]methyl salicylate, reference compound] |  |  |  |  |  | slowly releases the CAS 1609 compound and salicylic acid
3 | 90 | 1.6 | 2500 | NCCCC(=O)Oc1ccccc1C(=O)OCc1no[n+]([O-])c1C(N)=O [MC596, ([3-(aminocarbonyl)furoxan-4-yl]methyl-2-(4-aminobutanoyloxy)benzoate hydrochloride)] |  |  |  |  |  | 
4 | 80 | 1.3 | 10000 | CC(N)C(=O)Oc1ccccc1C(=O)OCc1no[n+]([O-])c1C(N)=O (stereo not shown) [MC598, ([3-(aminocarbonyl)furoxan-4-yl]methyl-2-(alanyloxy)benzoate hydrochloride)] |  |  |  |  |  | 
